Test results as given in patent US20040072992A1, “Novel peptide capable of specifically acting on biological membrane” (priority 2002, published 2004).
Values after ≈ are worked out from the molar mass of the structure shown. Like-named read-outs stand apart in the source and are kept apart here. Where a SMILES comes first, the peptide text is derived from it. Where no end group is shown, it is not given here.

Legend:
E. coli JCM1649 = details: JCM1649, 18 h
E. coli CE-273 = details: CE-273, 18 h
B. sereus IFO3457 = details: 18 h
S. aureus JCM2413 = details: JCM2413, 18 h
S. aureus IFO13276 = details: IFO13276, 18 h
S. enteritidis ATC14028 = details: ATC14028, 18 h
B. subtilis IFO13722 = details: IFO13722, 18 h
E. coli CR-3 = details: CR-3, 18 h
S. enteritidis ATCC1891 = details: ATCC1891, 18 h
erythrocytes = details: for Hemolytic property (relative value): red cells of human

## RVGINWKGIAAMAKKII [RVG-mastX, RVG INWKGIAAMAKKII]
E. coli JCM1649
  MIC: >200 µM
E. coli CE-273
  MIC: 50 µM
B. sereus IFO3457
  MIC: >200 µM
S. aureus JCM2413
  MIC: 200 µM
S. aureus IFO13276
  MIC: >200 µM
S. enteritidis ATC14028
  MIC: 200 µM
B. subtilis IFO13722
  MIC: 50 µM
E. coli CR-3
  MIC: 50 µM
S. enteritidis ATCC1891
  MIC: 100 µM

## KNRKGIAGMAKKLLGNKWKLM [mastWR]
E. coli JCM1649
  MIC: 50 µM
E. coli CE-273
  MIC: 12.5 µM
B. sereus IFO3457
  MIC: 50 µM
S. aureus JCM2413
  MIC: 50 µM
S. aureus IFO13276
  MIC: 50 µM
S. enteritidis ATC14028
  MIC: 25 µM
B. subtilis IFO13722
  MIC: 50 µM
E. coli CR-3
  MIC: 25 µM
S. enteritidis ATCC1891
  MIC: 12.5 µM

## GWALR [Ribo-2, GWALR]
E. coli JCM1649
  MIC: >800 µM
E. coli CE-273
  MIC: >800 µM
B. sereus IFO3457
  MIC: >800 µM
S. aureus JCM2413
  MIC: 800 µM
S. aureus IFO13276
  MIC: >800 µM
S. enteritidis ATC14028
  MIC: 800 µM
B. subtilis IFO13722
  MIC: >800 µM
E. coli CR-3
  MIC: 800 µM
S. enteritidis ATCC1891
  MIC: 800 µM

## CC(C)[C@H](NC(=O)[C@@H](N)CCCCN)C(=O)NCC(=O)O [KVG] (H-Lys-Val-Gly-OH)
E. coli JCM1649
  MIC: >800 µM
E. coli CE-273
  MIC: 800 µM (≈ 242 µg/mL)
B. sereus IFO3457
  MIC: >800 µM
S. aureus JCM2413
  MIC: 800 µM (≈ 242 µg/mL)
S. aureus IFO13276
  MIC: >800 µM
S. enteritidis ATC14028
  MIC: 800 µM (≈ 242 µg/mL)
B. subtilis IFO13722
  MIC: >800 µM
E. coli CR-3
  MIC: 800 µM (≈ 242 µg/mL)
S. enteritidis ATCC1891
  MIC: >800 µM

## CC(C)C[C@H](NC(=O)[C@@H](NC(=O)[C@@H](N)CCCNC(=N)N)C(C)C)C(=O)O [RVL] (H-Arg-Val-Leu-OH)
E. coli JCM1649
  MIC: >800 µM
E. coli CE-273
  MIC: >800 µM
B. sereus IFO3457
  MIC: >800 µM
S. aureus JCM2413
  MIC: >800 µM
S. aureus IFO13276
  MIC: >800 µM
S. enteritidis ATC14028
  MIC: 800 µM (≈ 309 µg/mL)
B. subtilis IFO13722
  MIC: >800 µM
E. coli CR-3
  MIC: 800 µM (≈ 309 µg/mL)
S. enteritidis ATCC1891
  MIC: >800 µM

## KVLINWKGIAAMAKKII [KVL-mastX, KVL INWKGIAAMAKKII]
E. coli JCM1649
  MIC: 100 µM
E. coli CE-273
  MIC: 25 µM
B. sereus IFO3457
  MIC: >200 µM
S. aureus JCM2413
  MIC: 50 µM
S. aureus IFO13276
  MIC: >200 µM
S. enteritidis ATC14028
  MIC: >200 µM
B. subtilis IFO13722
  MIC: 25 µM
E. coli CR-3
  MIC: 50 µM
S. enteritidis ATCC1891
  MIC: 100 µM

## CC(C)[C@H](NC(=O)[C@@H](N)CCCNC(=N)N)C(=O)NCC(=O)O [RVG] (H-Arg-Val-Gly-OH)
E. coli JCM1649
  MIC: >800 µM
E. coli CE-273
  MIC: 800 µM (≈ 264 µg/mL)
B. sereus IFO3457
  MIC: >800 µM
S. aureus JCM2413
  MIC: 800 µM (≈ 264 µg/mL)
S. aureus IFO13276
  MIC: >800 µM
S. enteritidis ATC14028
  MIC: 800 µM (≈ 264 µg/mL)
B. subtilis IFO13722
  MIC: >800 µM
E. coli CR-3
  MIC: 800 µM (≈ 264 µg/mL)
S. enteritidis ATCC1891
  MIC: >800 µM

## KVLALRL [KVL+, KVL ALRL]
E. coli JCM1649
  MIC: >200 µM
E. coli CE-273
  MIC: 3.1 µM
B. sereus IFO3457
  MIC: >200 µM
S. aureus JCM2413
  MIC: >200 µM
S. aureus IFO13276
  MIC: >200 µM
S. enteritidis ATC14028
  MIC: >200 µM
B. subtilis IFO13722
  MIC: >200 µM
E. coli CR-3
  MIC: >200 µM
S. enteritidis ATCC1891
  MIC: >200 µM

## CC(C)C[C@H](NC(=O)[C@@H](NC(=O)[C@@H](N)CCCCN)C(C)C)C(=O)O [KVL] (H-Lys-Val-Leu-OH)
E. coli JCM1649
  MIC: >800 µM
E. coli CE-273
  MIC: 800 µM (≈ 287 µg/mL)
B. sereus IFO3457
  MIC: 800 µM (≈ 287 µg/mL)
S. aureus JCM2413
  MIC: 400 µM (≈ 143 µg/mL)
S. aureus IFO13276
  MIC: 800 µM (≈ 287 µg/mL)
S. enteritidis ATC14028
  MIC: 800 µM (≈ 287 µg/mL)
B. subtilis IFO13722
  MIC: 800 µM (≈ 287 µg/mL)
E. coli CR-3
  MIC: 800 µM (≈ 287 µg/mL)
S. enteritidis ATCC1891
  MIC: >800 µM

## KVLKVLKVL [KVL3, KVLKVLKVL]
E. coli JCM1649
  MIC: >200 µM
E. coli CE-273
  MIC: >200 µM
B. sereus IFO3457
  MIC: >200 µM
S. aureus JCM2413
  MIC: >200 µM
S. aureus IFO13276
  MIC: >200 µM
S. enteritidis ATC14028
  MIC: >200 µM
B. subtilis IFO13722
  MIC: >200 µM
E. coli CR-3
  MIC: >200 µM
S. enteritidis ATCC1891
  MIC: >200 µM

## KNWKGIAGMAKKLLGKNWKLM-NH2 [mast21N]
E. coli JCM1649
  MIC: 3.1 µM
erythrocytes; 100 μM
  Hemolytic property (relative value): 13%
E. coli CE-273
  MIC: 3.1 µM
B. sereus IFO3457
  MIC: 3.1 µM
S. aureus JCM2413
  MIC: 12.5 µM
S. aureus IFO13276
  MIC: 12.5 µM
S. enteritidis ATC14028
  MIC: 6.3 µM
B. subtilis IFO13722
  MIC: 3.1 µM
E. coli CR-3
  MIC: 3.1 µM
S. enteritidis ATCC1891
  MIC: 6.3 µM

## CC(C)C[C@H](NC(=O)[C@H](C)N)C(=O)N[C@@H](CCCNC(=N)N)C(=O)O [ALR] (H-Ala-Leu-Arg-OH)
E. coli JCM1649
  MIC: >200 µM
E. coli CE-273
  MIC: >200 µM
B. sereus IFO3457
  MIC: >200 µM
S. aureus JCM2413
  MIC: >200 µM
S. aureus IFO13276
  MIC: >200 µM
S. enteritidis ATC14028
  MIC: >200 µM
B. subtilis IFO13722
  MIC: >200 µM
E. coli CR-3
  MIC: >200 µM
S. enteritidis ATCC1891
  MIC: >200 µM

## RLAWG [Ribo-1, RLAWG]
E. coli JCM1649
  MIC: >800 µM
E. coli CE-273
  MIC: >800 µM
B. sereus IFO3457
  MIC: >800 µM
S. aureus JCM2413
  MIC: 800 µM
S. aureus IFO13276
  MIC: >800 µM
S. enteritidis ATC14028
  MIC: 800 µM
B. subtilis IFO13722
  MIC: >800 µM
E. coli CR-3
  MIC: 800 µM
S. enteritidis ATCC1891
  MIC: >800 µM

## INWKGIAAMAKKLL [mastoparanX, INWKGIAAMAKKLL, reference compound]
E. coli JCM1649
  MIC: 3.1 µM
erythrocytes
  Hemolytic property, in words: high level of hemolytic property
erythrocytes; 1 μM
  Hemolytic property (relative value): 5.4%
erythrocytes; 5 μM
  Hemolytic property (relative value): 18.8%
erythrocytes; 10 μM
  Hemolytic property (relative value): 86%
erythrocytes; 100 μM
  Hemolytic property (relative value): 93%
E. coli CE-273
  MIC: 3.1 µM
B. sereus IFO3457
  MIC: 3.1 µM
S. aureus JCM2413
  MIC: 12.5 µM
S. aureus IFO13276
  MIC: 1.56 µM
S. enteritidis ATC14028
  MIC: 6.3 µM
B. subtilis IFO13722
  MIC: 3.1 µM
E. coli CR-3
  MIC: 3.1 µM
S. enteritidis ATCC1891
  MIC: 3.1 µM

## ALRALRALRALRALR [ALR5, ALRALRALRALRALR]
E. coli JCM1649
  MIC: 100 µM
E. coli CE-273
  MIC: 100 µM
B. sereus IFO3457
  MIC: 100 µM
S. aureus JCM2413
  MIC: 200 µM
S. aureus IFO13276
  MIC: 400 µM
B. subtilis IFO13722
  MIC: 25 µM
S. enteritidis ATCC1891
  MIC: 100 µM
